Measurements as given in patent US8884011B2, “Nucleotide analogues as precursor molecules for antivirals” (Centre National de la Recherche Scientifique-CNRS, priority 2006, dated 2014).
Where two headings read alike, the source gives them in different places.

Assays:
[1] = system: HIV-1-LAI; assay: Anti-HIV test in CMSP cultures infected by HIV-1-LAI (RT activity in supernatants); type: cell-based; conditions: for EC50: Human immunodeficiency virus 1, 168 h, read-out: EC50 (μM) HIV-1 (LAI)
[2] = system: HBV; assay: Anti-HBV test in infected HepAD38 cells (intracellular viral DNA by Q-PCR); type: cell-based; conditions: for EC50: Hepatitis B virus, 144 h, infected HepAD38 cells, 50% reduction of viral DNA, day 6 post-induction
Experimental: These are hepatoma cells that have been stably transfected with a cDNA copy of the pregenomic RNA of wild-type virus. Withdrawal of tetracycline from the culture medium results in the initiation of viral replication. This offers the advantage, in contrast to the Hep G2.2.15 cell lines commonly used, that there is no, or very limited background viral DNA synthesis. Cells were cultured at 37° C. in a humidified 5% CO2/air atmosphere in seeding medium, DMEM/Ham's F12 (50/50) supplemented with 10% (v/v) heat-inactivated fetal calf serum, 100 IU/ml penicillin, 50 μg/ml streptomycin, 100 Ξg/ml kanamycin, 400 μg/ml G418, and 0.3 μg/ml tetracycline. […] After 2-3 days the cultures were induced for viral production by washing with prewarmed PBS and were fed with […] assay medium (seeding medium without tetracycline and G418) with or without the antiviral compounds. Medium was changed after 3 days. The antiviral effect was quantified by measuring levels of intracellular viral DNA at day 6 post-induction, by a real time quantitative PCR (Q-PCR) method. Total cellular DNA was extracted from the cells by means of a commercial kit. […] The reaction was analyzed using a SDS 7000. A plasmid containing the full length insert of the HBV genome was used to prepare the standard curve. The amount of viral DNA produced in treated cultures was expressed as a percentage of the mock treated samples. […] The cytostatic effect of the various compounds was assessed employing the parent hepatoma cell line HepG2. The effect of the compounds on exponentially growing HepG2 cells was evaluated by means of the MTS method. Briefly, cells were seeded at a density of 3000/well (96 well plate) and were allowed to proliferate for 3 days in the absence or presence of compounds after which the optical density was measured with a 96-well plate reader and cell density was determined.

[3] = Cytotoxicity by MTT test in cultures of uninfected CMSP; conditions: human
[4] = Cytostatic effect on parent hepatoma cell line HepG2 (MTS method); conditions: human
[5] = system: HBV; assay: Anti-HBV test in infected Huh7 cells; type: cell-based; conditions: Hepatitis B virus, Huh-7, read-out: EC50 (μM) HBV
[6] = biological target: K65R mutant RT of HIV-1 (Human immunodeficiency virus type 1 group M subtype B, UniProt P04585, K652R); assay: biochemical; type: biochemical
[7] = biological target: wild-type RT of HIV-1 (Human immunodeficiency virus type 1 group M subtype B, UniProt P04585); assay: biochemical; type: biochemical; conditions: for Selectivity = (kpol/Kd) natural nucleotide/(kpol/Kd) nucleotide analogue (discrimination): versus dATP
[8] = system: K65R mutant RT of HIV-1; assay: biochemical; type: biochemical
[9] = Stability in complete medium (RPMI 1640 containing 10% heat-inactivated fetal calf serum), HPLC; type: in vitro ADME
Experimental: (§1) Media and preparation of cell extracts. Culture medium was composed by RPMI 1640 containing 10% (v/v) heat-inactivated fetal calf serum and stored at −80° C. CEM-SS cell extracts were prepared according to a published procedure (Puech, F. et al. Antiv. Res. 1993, 22, 155-174). Exponentially growing CEM-SS cells were recovered by centrifugation (500 g, 4° C., 4 min), washed twice with PBS and resuspended in 10 mM Tris-HCl, 140 mM KCl (pH 7.4), at the concentration of 30×10^6 cells/mL. Cells were lyzed by ultrasonic treatment and cellular debris were removed by centrifugation (10000 g, 4° C., 20 min). The supernatant containing soluble proteins (3 mg/mL) was stored at −80° C.
Kinetic data and decomposition pathways for compounds 6 and 11 were studied at 37° C. (a) in complete medium (RPMI 1640 containing 10% heat-inactivated fetal calf serum (b) in total cells extracts (CEM-SS). For each kinetic study, the compound solution was diluted with a freshly thawed aliquot of the considered medium to obtain an initial concentration of 0.1 mM. The mixture was incubated at 37° C. and for the required time, an aliquot (10% solution) was taken and immediately frozen at −80° C. for further HPLC analysis. The crude sample was injected into the precolumn and eluted with buffer A during 5 min. Then, the switching valve for connecting the precolumn to the column was activated, and a linear gradient from buffer A to buffer B, increasing buffer B from 0% at 0 min to 20% at 40 min is applied. The retention times were 6, 26 min; 11, 29.5 min, PMEA, 24.3 min and (R)-PMPA, 27.8 min.
All the compounds were analyzed under the same conditions. The amount of remaining parent compound at each time point was used to determine the half-life of the compound. The product of degradation from parent compound was determined by comparison with corresponding references.

[10] = system: HIV-2 (ROD); assay: Anti-HIV test in CEM cell cultures, syncytium formation, HIV-2 (ROD); type: cell-based; conditions: Human immunodeficiency virus 2, CCRF-CEM, read-out: EC50 (μM) HIV-2
[11] = Cytotoxicity in CEM cell cultures (cell density); type: cell-based; conditions: human, 50% reduction in cell density, read-out: TC50 (the source's name)
[12] = system: respiratory syncytial virus; assay: Virus panel, CPE assay: respiratory syncytial virus in Hela cells; type: cell-based; conditions: human respiratory syncytial virus, read-out: in vitro antiviral activity (EC50), none up to
[13] = Stability in total cell extracts (CEM-SS), HPLC; type: in vitro ADME; conditions: 37° C., 0.1 mM
Experimental: as §1
Kinetic data and decomposition pathways for compounds 6 and 11 were studied at 37° C. […]
All the compounds were analyzed under the same conditions. […] The product of degradation from parent compound was determined by comparison with corresponding references.

[14] = system: Sindbis virus; assay: Virus panel, CPE assay: Sindbis virus in Vero cells; type: cell-based; conditions: read-out: in vitro antiviral activity (EC50), none up to
[15] = system: influenza A (H1N1); assay: Virus panel: influenza A (H1N1) in MDCK cells; type: cell-based; conditions: read-out: in vitro antiviral activity (EC50), none up to
From the text: (§2) influenza A (H1N1), influenza A (H3N2), influenza B, in MDCK cells;

[16] = system: Coxsackie B4; assay: Virus panel, CPE assay: Coxsackie B4 virus in Hela and Vero cells; type: cell-based; conditions: Enterovirus B, read-out: in vitro antiviral activity (EC50), none up to
[17] = system: Reovirus-1; assay: Virus panel, CPE assay: Reovirus-1 in Vero cells; type: cell-based; conditions: Reovirus-1, Vero cells; read-out: in vitro antiviral activity (EC50), none up to
[18] = system: Parainfluenza-3-virus; assay: Virus panel, CPE assay: Parainfluenza-3-virus in Vero cells; type: cell-based; conditions: read-out: in vitro antiviral activity (EC50), none up to
[19] = system: influenza B; assay: Virus panel: influenza B in MDCK cells; type: cell-based; conditions: read-out: in vitro antiviral activity (EC50), none up to
From the text: as §2

[20] = system: influenza A (H3N2); assay: Virus panel: influenza A (H3N2) in MDCK cells; type: cell-based; conditions: read-out: in vitro antiviral activity (EC50), none up to
From the text: as §2

[21] = system: vesicular stomatitis virus; assay: microbe, parasite or virus in culture; type: cell-based; conditions: HEL, read-out: in vitro antiviral activity (EC50), none up to
[22] = system: Punta Toro virus; assay: Virus panel, CPE assay: Punta Toro virus in Vero cells; type: cell-based; conditions: read-out: in vitro antiviral activity (EC50), none up to
[23] = system: CMSP (uninfected cells); assay: Cytotoxicity by MTT test in cultures of uninfected CMSP; conditions: text statement to Table VII
[24] = system: HIV-1 (IIIB); assay: Anti-HIV test in CEM cell cultures, syncytium formation, HIV-1 (IIIB); type: cell-based; conditions: Human immunodeficiency virus 1, IIIB, CCRF-CEM, read-out: EC50 (μM) HIV-1
Experimental: Briefly, CEM cells (4.5×10^5 cells per ml) were suspended in fresh culture medium and infected with HIV-1 at 100 CCID50 per ml of cell suspension. Then, 100 μl of the infected cell suspension were transferred to microplate wells, mixed with 100 μl of the appropriate dilutions of the test compounds, and further incubated at 37° C. After 4 to 5 days, giant cell formation was recorded microscopically in the CEM cell cultures.

With `CC(Cn1cnc2c(N)ncnc21)OCP(=O)(O)O` (stereo not shown) [PMPA, 9-(2-(phosphonomethoxy)propyl)adenine] the “IT (selectivity index, TC50/EC50)” value ([1]; HIV-1 (LAI), CMSP) was greater than 77, the EC50 [1] was 1.3 µM and the “SI selectivity index (TC50/EC50)” value ([2]; HBV, HepAD38 cells) was greater than 12. The EC50 [2] was 2.88 µM, the CC50 at 7 days [3] was greater than 100 µM and the CC50 at 3 days ([4]; exponentially growing HepG2 cells) was greater than 35 µM. The EC50 [5] was 4 µM.

In the case of `C[C@H](Cn1cnc2c(N)ncnc21)OCP(O)(=S)OP(=O)(O)OP(=O)(O)O` (stereo partly drawn) [Compound 13, (R)-9-[2-(pyrophosphoroxythiophosphonomethoxy)propyl]adenine], the Kd [6] is reported as 2.7 µM, the “kpol” value ([6]; K65R mutant RT) is reported as 0.077 s⁻¹ and the kpol/Kd ([6]; K65R mutant RT) is reported as 0.03. The “incorporation velocity, times lower than that of natural nucleotide dATP” value [7] was 90 times, the “kpol” value [7] was 0.58 s⁻¹ and the kpol/Kd [7] was 0.11. The Kd ([7]; Kd (μM), wild-type RT) was 5.2 µM, the Kd ([7]; affinities of the RT for the analogues (Kd), wild-type RT, unit inferred) was 5.5 µM and the “Selectivity = (kpol/Kd) natural nucleotide/(kpol/Kd) nucleotide analogue (discrimination)” value ([7]; wild-type RT) was 59.8.

With `C[C@@H](Cn1cnc2c(N)ncnc21)OCP(=O)(O)OP(=O)(O)OP(=O)(O)O` [PMPApp, PMPA diphosphate] the Kd ([6]; K65R mutant RT) was 18 µM, the “kpol” value ([6]; K65R mutant RT) was 0.32 s⁻¹ and the kpol/Kd ([6]; K65R mutant RT) was 0.017. For the same compound, the “Selectivity = (kpol/Kd) natural nucleotide/(kpol/Kd) nucleotide analogue” value ([6]; K65R mutant RT, versus dATP) was 99.4, the “reduction in the incorporation velocity of the nucleotide (factor)” value [8] was 22 and the “kpol” value ([7]; wild-type RT) was 7 s⁻¹. The kpol/Kd ([7]; wild-type RT) was 0.3, the “Selectivity = (kpol/Kd) natural nucleotide/(kpol/Kd) nucleotide analogue (discrimination)” value ([7]; wild-type RT) was 22.3 and the “Selectivity = (kpol/Kd) natural nucleotide/(kpol/Kd) nucleotide analogue (discrimination)” value ([7]; wild-type RT, listed as PMPADP) was 22. The Kd ([7]; wild-type RT, read-out: Kd) was 23 µM.

With `C[C@H](Cn1cnc2c(N)ncnc21)OCP(=O)(O)S` (stereo partly drawn) [Compound 11, (R)-9-[2-(thiophosphonomethoxy)propyl]adenine] the half-life at 0.1 mM ([9]; bovine, serum, 37° C., initial concentration 0.1 mM, read-out: t1/2 complete medium) was greater than 24 h, the product intact ([9]; complete medium, 37° C., degradation into the phosphonate) was “^b: product 77% intact (degradation into PMPA)” and the degradation ([9]; culture medium) was 20%. The EC50 [10] was 8.6 µM, the EC50 [1] was 1.6 µM and the CC50 [11] was greater than 165 µM. The EC50 [12] was greater than 200 µM, the t1/2 cell extracts [13] was “stable^c” and the EC50 [14] was greater than 200 µM. For the same compound, the EC50 [15] was greater than 200 µM, the EC50 [16] was greater than 200 µM and the EC50 [17] was greater than 200 µM. It also gave an EC50 [18] greater than 200 µM, an EC50 [19] greater than 200 µM and an EC50 [20] greater than 200 µM. The EC50 [21] was greater than 200 µM, the EC50 [22] was greater than 200 µM and the EC50 [2] was 2.26 µM. The “not cytotoxic (highest concentration tested)” value [23] was greater than 200 µM, the CC50 at 7 days [3] was greater than 100 µM and the CC50 at 3 days [4] was greater than 174 µM. The EC50 [5] was 5 µM and the EC50 [24] was 11.1 µM.
